{
  "source": "PubChem BioAssay AID1259408",
  "about": "(Genetic Toxicology Data Bank (GENE-TOX), 2018)",
  "tested_on": "GENE-TOX genotoxicity assays, various organisms and cells",
  "experiment": "GENE-TOX mutagenicity studies",
  "key": {"[1]": {"conditions": "Species/Cell Type: Salmonella typhimurium (one or more of the five standard strains: TA98, TA100, TA1535, TA1537, and TA1538), Assay Type: Histidine reverse gene mutation, Ames assay, Assay Code: SALT, Evaluation Type: Evaluation A (Pre-1980)"}, "[2]": {"conditions": "Species/Cell Type: Salmonella typhimurium (one or more of the five standard strains: TA98, TA100, TA1535, TA1537, and TA1538), Assay Type: Histidine reverse gene mutation, Ames assay, Assay Code: SAL+*, Activation: With metabolic activation, Evaluation Type: Evaluation A (Pre-1980)"}, "[3]": {"conditions": "Species/Cell Type: Salmonella typhimurium (one or more of the five standard strains: TA98, TA100, TA1535, TA1537, and TA1538), Assay Type: Histidine reverse gene mutation, Ames assay, Assay Code: SAL+, Evaluation Type: Evaluation A (Pre-1980)"}, "[4]": {"conditions": "Species/Cell Type: Drosophila melanogaster, Assay Type: Sex-linked recessive lethal gene mutation, Assay Code: SRL+, Evaluation Type: Evaluation A (Pre-1980)"}},
  "note": "The source made the active and inactive calls. How the calls were made is not given here.",
  "data": [
    {"molecule": "Cc1c2ccccc2c(C)c2c1cc(F)c1ccccc12", "values": [
      {"measurement": "mutagenic call", "setting": "Species/Cell Type: Chinese hamster lung (V79) cells, Assay Type: Forward gene mutation at the HPRT or ouabain locus, Assay Code: V79-*, Activation: With metabolic activation, Evaluation Type: Evaluation A (Pre-1980)", "result": "inactive; negative"}
    ]},
    {"molecule": "O=S(=O)(O)c1cc(-n2nc3ccc4ccccc4c3n2)ccc1/C=C/c1ccccc1", "values": [
      {"measurement": "mutagenic call", "setting": "Species/Cell Type: Rodents, Sex: Male, Assay Type: Dominant lethal test, Assay Code: DLT-, Evaluation Type: Evaluation A (Pre-1980)", "result": "inactive; negative"},
      {"measurement": "mutagenic call", "setting": "Species/Cell Type: Saccharomyces cerevisiae, Assay Type: Mitotic recombination or gene conversion, Assay Code: YECT, Evaluation Type: Evaluation A (Pre-1980)", "result": "no conclusion"},
      {"measurement": "mutagenic call", "setting": "[1]", "result": "no conclusion"}
    ]},
    {"molecule": "CCC1(O)CC(OC2CC(N)C(OC3CC(O)C(OC4CCC(=O)C(C)O4)C(C)O3)C(C)O2)c2c(cc3c(c2O)C(=O)c2c(O)cccc2C3=O)C1C(=O)OC", "note": "(centres undefined)", "values": [
      {"measurement": "mutagenic call", "setting": "[2]", "result": "active; positive"}
    ]},
    {"molecule": "Nc1ccc2c(c1)C(=O)c1ccccc1C2=O", "values": [
      {"measurement": "call", "setting": "Species/Cell Type: Nonhuman, Assay Type: In vivo carcinogenicity studies, Assay Code: CCG+, Evaluation Type: Evaluation A (Pre-1980)", "result": "active; positive"}
    ]},
    {"molecule": "N#CC(Cl)Cl", "values": [
      {"measurement": "mutagenic call", "setting": "Species/Cell Type: Saccharomyces cerevisiae, Assay Type: Mitotic recombination or gene conversion, Assay Code: YEH+, Evaluation Type: Evaluation A (Pre-1980)", "result": "active; positive"},
      {"measurement": "mutagenic call", "setting": "[3]", "result": "active; positive"}
    ]},
    {"molecule": "COC(=O)COc1ccc(Br)cc1CCl", "note": "(tested in a mixture with another compound)", "values": [
      {"measurement": "mutagenic call", "setting": "Species/Cell Type: Saccharomyces cerevisiae, Assay Type: Reverse gene mutation, Assay Code: YER+, Evaluation Type: Evaluation A (Pre-1980)", "result": "active; positive"}
    ]},
    {"molecule": "O=[N+]([O-])c1ccc2[nH]ncc2c1", "values": [
      {"measurement": "mutagenic call", "setting": "[3]", "result": "active; positive"}
    ]},
    {"molecule": "CCOP(=O)(OCC)Oc1nc(Cl)c(Cl)cc1Cl", "values": [
      {"measurement": "mutagenic call", "setting": "Species/Cell Type: Nonhuman, Assay Type: Sister-chromatid exchange (SCE) in vitro, Assay Code: SC2T, Evaluation Type: Evaluation B (Post-1980)", "result": "no conclusion"},
      {"measurement": "mutagenic call", "setting": "Species/Cell Type: Nonhuman, Assay Type: Sister-chromatid exchange (SCE) in vivo, Assay Code: SC3-, Evaluation Type: Evaluation B (Post-1980)", "result": "inactive; negative"}
    ]},
    {"molecule": "CS(=O)(=O)OCCCCO", "values": [
      {"measurement": "mutagenic call", "setting": "[4]", "result": "active; positive"}
    ]},
    {"molecule": "O=C1C=C(N2CC2)c2ccccc2C1=O", "values": [
      {"measurement": "mutagenic call", "setting": "[4]", "result": "active; positive"}
    ]},
    {"molecule": "CCCCNC(=O)NS(=O)(=O)c1ccc(N)cc1", "values": [
      {"measurement": "mutagenic call", "setting": "Species/Cell Type: Nonhuman, Assay Type: Sister-chromatid exchange (SCE) in vivo, Assay Code: SC3T, Evaluation Type: Evaluation B (Post-1980)", "result": "no conclusion"}
    ]},
    {"molecule": "Clc1ccc(Cl)cc1", "values": [
      {"measurement": "mutagenic call", "setting": "Species/Cell Type: Allium cepa, Assay Type: Chromosome aberrations, Assay Code: ALC+, Evaluation Type: Evaluation A (Pre-1980)", "result": "active; positive"},
      {"measurement": "mutagenic call", "setting": "Species/Cell Type: Mammalian polychromatic erythrocytes, Assay Type: Micronucleus test, chromosome aberrations, Assay Code: MNT+, Evaluation Type: Evaluation B (Post-1980)", "result": "active; positive"}
    ]},
    {"molecule": "Cc1cc(/C=C/c2ccc3cc(N(C)C)ccc3[n+]2C)c(C)n1-c1ccccc1", "values": [
      {"measurement": "mutagenic call", "setting": "Species/Cell Type: Nonhuman, Assay Type: Sister-chromatid exchange (SCE) in vitro, Assay Code: SC2+, Evaluation Type: Evaluation B (Post-1980)", "result": "active; positive"},
      {"measurement": "mutagenic call", "setting": "[2]", "result": "active; positive"}
    ]},
    {"molecule": "O=S(=O)(O)c1ccc(N=Nc2c(O)ccc3ccccc23)cc1", "values": [
      {"measurement": "mutagenic call", "setting": "Species/Cell Type: Bacillus subtilis (H17 vs M45), Assay Type: Rec-assay, spot test, DNA effects (bacterial DNA repair), Assay Code: REWT, Evaluation Type: Evaluation A (Pre-1980)", "result": "no conclusion"},
      {"measurement": "mutagenic call", "setting": "[1]", "result": "no conclusion"}
    ]},
    {"molecule": "O=[N+]([O-])c1ccc(N=Nc2c(O)ccc3ccccc23)c([N+](=O)[O-])c1", "values": [
      {"measurement": "mutagenic call", "setting": "[3]", "result": "active; positive"}
    ]},
    {"molecule": "[Cl][W]([Cl])([Cl])([Cl])([Cl])[Cl]", "values": [
      {"measurement": "mutagenic call", "setting": "Species/Cell Type: Syrian hamster embryo (SA7/SHE) cells, Assay Type: Cell transformation, viral enhanced, Assay Code: CT7-, Evaluation Type: Evaluation A (Pre-1980)", "result": "inactive; negative"}
    ]},
    {"molecule": "CCN(CC)Cc1cc(Br)ccc1OCC(=O)N/N=C\\c1ccc(OC)cc1", "values": [
      {"measurement": "mutagenic call", "setting": "Species/Cell Type: Saccharomyces cerevisiae, Assay Type: Reverse gene mutation, Assay Code: YERT, Evaluation Type: Evaluation A (Pre-1980)", "result": "no conclusion"}
    ]}
  ]
}
